Results as given in the supplement of paper PMC10307832.

How the values were obtained:
Assay in all cases: relative viability (nuclei count vs DMSO), 5 days (fraction); higher = more cells survive
AT-7519 + AZD7762 = compound: O=C(NC1CCNCC1)c1n[nH]cc1NC(=O)c1c(Cl)cccc1Cl [AT-7519] + NC(=O)Nc1cc(-c2cccc(F)c2)sc1C(=O)N[C@H]1CCCNC1 [AZD7762] (partner 0.2 µM)
Procedure, shortened: (§1)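 Relative viability is defined as nuclei in treated wells over nuclei in vehicle wells. Duplicate plates were run and medians reported. Lung cancer cell lines in 1536-well plates were dosed by pin tool one day after seeding, with one drug or with a fixed anchor-drug dose plus five library-drug doses (not always all listed) in √10 steps, and nuclei were counted after 5 days.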

[1] = compound: C1=CC2=C(C=C(C(=C2N=C1)O)N=NC3=CC4=C(C=C3)C=C(C=C4)S(=O)(=O)O)S(=O)(=O)O + CC(C)C[C@H](NC(=O)[C@H](Cc1ccccc1)NC(=O)c1cnccn1)B(O)O [Bortezomib] (partner 0.002 µM)
Procedure, shortened: as §1

AT-7519 + Bortezomib = compound: O=C(NC1CCNCC1)c1n[nH]cc1NC(=O)c1c(Cl)cccc1Cl [AT-7519] + CC(C)C[C@H](NC(=O)[C@H](Cc1ccccc1)NC(=O)c1cnccn1)B(O)O [Bortezomib] (partner 0.002 µM)
Procedure, shortened: as §1

[2] = compound: C1=CC2=C(C=C(C(=C2N=C1)O)N=NC3=CC4=C(C=C3)C=C(C=C4)S(=O)(=O)O)S(=O)(=O)O + C[C@@H](Oc1cc(-c2cnn(C3CCNCC3)c2)cnc1N)c1c(Cl)ccc(F)c1Cl [Crizotinib] (partner 1 µM)
Procedure, shortened: as §1

Cell Line | relative viability (AT-7519 + AZD7762; first compound 0.01 µM) | relative viability (AT-7519 + AZD7762; first compound 0.03162 µM) | relative viability (AT-7519 + AZD7762; first compound 0.3162 µM) | relative viability (AT-7519 + AZD7762; first compound 1 µM) | relative viability ([1]; first compound 0.08 µM) | relative viability ([1]; first compound 0.253 µM) | relative viability ([1]; first compound 0.8 µM) | relative viability ([1]; first compound 2.53 µM) | relative viability ([1]; first compound 8 µM) | relative viability (AT-7519 + Bortezomib; first compound 0.01 µM) | relative viability (AT-7519 + Bortezomib; first compound 0.03162 µM) | relative viability (AT-7519 + Bortezomib; first compound 0.3162 µM) | relative viability (AT-7519 + Bortezomib; first compound 1 µM) | relative viability ([2]; first compound 0.08 µM) | relative viability ([2]; first compound 0.253 µM) | relative viability ([2]; first compound 0.8 µM) | relative viability ([2]; first compound 2.53 µM) | relative viability ([2]; first compound 8 µM)
NCI-H727 | 0.571 | 0.494 | 0.604 | 0.414 | 0.917 | 0.945 | 0.854 | 0.853 | 0.816 | 0.973 | 0.837 | 0.573 | 0.526 | 1.17 | 0.76 | 0.798 | 0.936 | 0.772
NCI-H2087 | 1.48 | 1.13 | 1.49 | 0.58 | 0.888 | 0.902 | 0.856 | 0.669 | 0.904 | 0.82 | 1.05 | 0.811 | 0.51 | 1.04 | 0.952 | 0.957 | 0.694 | 0.833
BEN | 0.685 | 0.754 | 0.697 | 0.704 | 0.967 | 0.75 | 0.776 | 0.875 | 0.873 | 0.958 | 0.766 | 0.935 | 0.82 | 1.14 | 0.872 | 0.792 | 0.925 | 0.813
LCLC-103H | 0.8 | 0.739 | 0.807 | 0.901 | 1.14 | 1.14 | 1.12 | 1.15 | 1.02 | 1.01 | 1.05 | 1.07 | 1.2 | 1.16 | 1.02 | 0.978 | 1.07 | 1.06
EKVX | 0.798 | 0.608 | 0.822 | 0.719 | 1.15 | 0.781 | 0.987 | 1.11 | 1.01 | 0.978 | 0.911 | 0.996 | 1.13 | 0.997 | 0.959 | 1 | 0.894 | 0.915
LXF-289 | 1.1 | 1.14 | 1.1 | 1.23 | 0.95 | 0.96 | 0.986 | 0.986 | 0.945 | 0.951 | 1.05 | 0.957 | 1.01 | 0.886 | 0.762 | 0.792 | 0.835 | 0.741
ABC-1 | 0.922 | 0.782 | 0.952 | 0.907 | 0.277 | 0.393 | 0.281 | 0.246 | 0.226 | 0.291 | 0.337 | 0.259 | 0.231 | 1.07 | 1.33 | 1.01 | 1.27 | 1.23
NCI-H650 | 1.07 | 0.953 | 0.887 | 1.29 | 0.782 | 0.748 | 0.94 | 0.758 | 0.614 | 0.827 | 0.75 | 0.86 | 0.975 | 0.738 | 0.79 | 0.764 | 0.712 | 0.818
NCI-H2085 | 0.977 | 0.984 | 0.986 | 1.02 | 1.23 | 1.05 | 1.01 | 1.11 | 0.953 | 1.22 | 1.04 | 0.995 | 0.964 | 0.956 | 0.891 | 0.855 | 0.85 | 0.725
LC-2-ad | 0.77 | 0.844 | 0.826 | 0.945 | 1.12 | 1.04 | 0.976 | 1.08 | 0.902 | 0.962 | 0.978 | 1.02 | 0.672 | 0.534 | 0.412 | 0.462 | 0.452 | 0.411
NCI-H1355 | 0.71 | 0.703 | 0.902 | 0.907 | 1.22 | 1.22 | 1.15 | 1.23 | 1.29 | 1.26 | 1.16 | 1.31 | 1.29 | 1.16 | 1.04 | 0.986 | 1.17 | 1.14
H3255 | 0.987 | 0.903 | 0.937 | 0.876 | 0.719 | 0.685 | 0.802 | 0.875 | 0.741 | 0.904 | 0.825 | 0.984 | 0.766 | 0.842 | 1.02 | 0.834 | 0.669 | 0.874
NCI-H1993 | 0.671 | 0.637 | 0.736 | 0.38 | 1.08 | 1.07 | 1.28 | 1.3 | 0.977 | 0.987 | 0.979 | 1.07 | 0.683 | 0.866 | 0.904 | 0.864 | 0.797 | 0.896
NCI-H1734 | 0.519 | 0.493 | 0.655 | 0.453 | 1.07 | 0.885 | 0.863 | 1.09 | 0.978 | 0.782 | 0.884 | 0.842 | 0.442 | 0.733 | 0.66 | 0.724 | 0.64 | 0.662
HOP-62 | 0.589 | 0.557 | 0.621 | 0.743 | 0.714 | 0.558 | 0.851 | 0.725 | 0.637 | 0.723 | 0.825 | 0.827 | 0.718 | 1.14 | 0.725 | 0.701 | 1.09 | 1.02
LOU-NH91 | 0.755 | 0.79 | 0.643 | 0.713 | 0.504 | 0.477 | 0.51 | 0.498 | 0.496 | 0.541 | 0.541 | 0.468 | 0.478 | 0.765 | 0.704 | 0.739 | 0.79 | 0.717
